From patent US20160287624A1, “Water-Soluble Vitamins to Increase Oral Absorption and Bioavailability” (NESTEC S.A., priority 2013, published 2016)

Columns and labels:
[1] = Stability of vitamin B12 in simulated gastric fluid (HPLC-UV); assay type: physicochemical; conditions: 37° C.
Method: The pH of simulated gastric fluid was measured. […] The solutions were incubated at 37° C. in the water bath of a shaker operated at 50 rpm. After 2 hrs. of incubation, 1 mL solution was taken for HPLC analysis.
The pure vitamin B12 (F4) was also reconstituted in gastric fluid as an unformulated control. Both sample solutions were made to contain 20 μg/ml vitamin B12, wrapped with aluminum foil to avoid exposure to light, and incubated at 37° C. for two hours. The solutions were then stored in a freezer for 22 hrs. The frozen samples were thawed to room temp before HPLC-UV analysis.

[2] = rat, in vivo, po
Method: Rats (n=6 per group) were orally administered at a dose equivalent to 2 mg/70 kg person in a free form (unformulated control F4) or a formulation of Formula 1 (API:Stevia at 1:25 w/w), Formula 2 (API:Stevia at 1:50 w/w), or Formula 3 (API:Stevia at 1:125 w/w).
To answer the question whether the solubilizer enhanced the absorption of vitamin B12, the four formulations were assessed in a Sprague Dawley rat model at the vitamin B12 dose equivalent to 1 mg/70 kg person. Each group (formulation) had 6 rats (n=6). Each rat was orally gavaged and blood collected at 11 time points during a 12-hour period. The plasma samples were stored in a freezer prior to vitamin B12 analyses. Relative bioavailability was calculated by comparing the area under the time-concentration curves of formulated over the unformulated control.
Vitamin B12 in rat plasma over time after oral gavage with baseline normalized for all treatments were analyzed by a radioimmunoassay method. The vitamin B12 in rat plasma over a 12-hr period at 15, 30, 45, 60, 90 min, and 2, 2.5, 4, 6, 8, and 12 h after oral gavage at a dose equivalent to 2 mg/70 kg person in a free form (unformulated control) or a formulated form of Formula 1 (vitamin B12:stevia at 1:25 w/w), Formula 2 (vitamin B12:stevia at 1:50 w/w), or Formula 3 (vitamin B12:stevia at 1:125 w/w) were analyzed.

Caco-2 cell monolayer = assay: Absorption assessment in Caco-2 cell monolayer (A->B permeability)
Text: (§1) A Caco-2 cellular model was used to study the effect of the stevia solubilizer on the intestinal absorption of vitamin B12. The Caco-2 cell monolayer model is the pharmaceutical industry standard for predicting human oral absorption. The test samples included:

[3] = as above; conditions: human, Caco-2, Mean A->B Papp, assay duration 2 hr; controls 10 μM, formulations analyte test conc. 20 μg/mL
Text: as §1

SMILES | Stability of vitamin B12 in gastric fluid ([1]; over a two hour period, 20 μg/ml) | R.E. (relative error) 2 hr ([1]; simulated gastric fluid, 2 hr) | Determined Concentration 2 hr ([1]; simulated gastric fluid, 2 hr, 0 hr 20.2 μg/mL) | Time during which vitamin B12 in plasma was detected [2] | Tmax (the time at which Cmax is reached) [2] | Permeability across Caco-2 cell monolayer (Caco-2 cell monolayer) | Mean A->B Papp (Caco-2 cell monolayer; assay duration 2 hr, controls 10 μM, formulations analyte test conc. 20 μg/mL) | Papp A→B at 2 h, 10 μM [3]
C/C1=C2/[N-][C@H]([C@H](CC(N)=O)[C@@]2(C)CCC(=O)NC[C@@H](C)OP(=O)([O-])O[C@H]2[C@@H](O)[C@@H](n3cnc4cc(C)c(C)cc43)O[C@@H]2CO)[C@]2(C)N=C(/C(C)=C3N=C(/C=C4N=C1[C@@H](CCC(N)=O)C\4(C)C)[C@@H](CCC(N)=O)[C@]\3(C)CC(N)=O)[C@@H](CCC(N)=O)[C@]2(C)CC(N)=O.[CH3-].[Co+3] [Formula F4, methylcobalamin] | stable | 3.7% | 21.0 µg/mL | 480 min | 1.5 h | not permeable | <LLOQ^c | –
CNC(=C[N+](=O)[O-])NCCSCc1ccc(CN(C)C)o1 [Ranitidine] | – | – | – | – | – | – | – | 0.3 ×10⁻⁶ cm/s
